As usually defined, the IC50 is the concentration that inhibits the measured activity by half.

In test [1] the test system is lung adenocarcinoma cell line (A549). Kind of test: In vitro anti-tumor activity test (CCK8), lung adenocarcinoma cell line. Particulars: A549 cells, 48 h incubation, CCK8, absorbance 450 nm. In kind it is cell-based. As to the method:
(§1) The obtained Artemisia Rupestris complex salts were subjected to an in vitro anti-tumor activity test, in which the in vitro inhibitory activity of the Artemisia Rupestris complex salts on the lung adenocarcinoma cell line (A549) and cervical carcinoma cell line (Hela) was mainly researched. The specific test process was illustrated by the process for testing the lung adenocarcinoma cell line (A549):
(§2) The prepared Artemisia Rupestris complex salt was weighed, added into a 5 mL plastic centrifuge tube and diluted to
(§3) 1 mL with DMSO, to obtain a test sample at an initial concentration. Then the test sample at an initial concentration was serially diluted with DMSO to obtain test samples in 5 different concentration gradients in sequence, which were stored in a refrigerator at 4° C. for later use.
(§4) The lung adenocarcinoma cell line (A549) was incubated in an incubator for 24 h under the conditions of 37° C., 5% CO2, and saturated humidity. When the cells were in logarithmic growth phase, the culture supernatant was discarded, and the residue was digested with 0.25% trypsin-EDTA solution. Then, the digestion was terminated with high glucose medium. The cells were seeded in a 96-well plate with a cell density of 5000 cells/well. The 96-well plate was incubated in an incubator for 24 h. Then the cell culture supernatant in the 96-well plate was discarded. 100 μL of high glucose medium was added to the 96-well plate, and test samples at different concentrations were added to wells at 1 μL/well (5 duplicate wells were set for each concentration). After the plate was incubated in an incubator for 48 h under the conditions of 37° C., saturated humidity and 5% CO2, 10 μL of CCK8 was added to each well, and the plate was then incubated in the incubator at 37° C. for 1-4 h. The absorbance of each well at 450 nm was measured on a multifunctional microplate reader. Inhibition rate %=[(ODcontrol cells−ODtreatment cells)/(ODcontrol cells−ODblank)]×100. Negative control was a mixed solution of Vhigh glucose medium and VDMSO at a ratio of 10:1.

Test [2] concerns cervical carcinoma cell line (Hela). Kind of test: In vitro anti-tumor activity test (CCK8), cervical carcinoma cell line. The note with it: Hela cells, 48 h incubation, CCK8, absorbance 450 nm. In kind it is cell-based. As to the method:
as §1, §2, §3, §4
The process for testing the inhibition of those compounds on the cervical cancer cell line (Hela) was the same as above.

With `O=C1CCC[C@@H]2[C@H]3CCCN4CCC[C@@H](CN12)[C@@H]34` [Matrine], the IC50 in test [1] (Homo sapiens) turned out to be 6370 µM; in test [2] (Homo sapiens), 774 µM.

Molecule `O=C1CCC[C@@H]2[C@H]3CCC[N+]4([O-])CCC[C@@H](CN12)[C@@H]34` (stereo partly shown) [Oxymatrine] yielded an IC50 in test [2] (Homo sapiens) of 0.95 µM. On to `C=C(C(=O)O)[C@H]1CC[C@H](C)[C@@H]2CC(=O)C(C)=C2C1` [Rupestonic acid], for which the “IC50 (μM) A549” value in test [1] is “Inactive”. For the same molecule, in test [2], the “IC50 (μM) Hela” value is recorded as “Inactive”. `O=C1C=CC[C@@H]2[C@H]3CCCN4CCC[C@@H](CN12)[C@@H]34` [Sophocarpine]: the IC50 in test [1] (Homo sapiens) was determined as 241 µM; in test [2] (Homo sapiens) it was 122 µM. For the molecule `O=C1CCC[C@@H]2[C@H]3CCCN4CCC[C@H](CN12)[C@@H]34` [Sophoridine], the IC50 came to 16000 µM in test [1] (Homo sapiens) and 1490 µM in test [2] (Homo sapiens). Take “complex salt of rupestonic acid and matrine”: the results for the IC50 in test [1] and in test [2] were 1.49 µM and 11.8 µM, respectively.

In test [2], “complex salt of rupestonic acid and oxymatrine” yielded an IC50 of 25.2 µM. That is a double-digit micromolar value. For “complex salt of rupestonic acid and sophocarpine”, the IC50 in test [1] came to 714 µM; in test [2] it was 115 µM. The corresponding values for “complex salt of rupestonic acid and sophoridine” are 61.3 µM and 17.9 µM.
